Experimental data taken from patent US20240368150A1 (Hoffmann-La Roche Inc., priority 2021, published 2024).
Read-outs that look alike come from different tables or passages of the source.

What was measured:
primary human T-cells [1] = test: Proliferation assay after 5 days (CellTiter-Glo, CD3 stimulation; PBS counter screen); type: cell-based; conditions: Homo sapiens, T-cell, 120 h, CD3 stimulation; for Emax: 5 days, normalized to reference compound A1 as stimulator control = 100%, DMSO neutral control, read-out: Emax proliferation (% activation); for EC50: primary human T-cells, CellTiter-Glo after 5 days, EC50 of fitted sigmoidal curve, read-out: Tcell Proliferation CD3 EC50
Experimental: Compounds are then added (see next section) to medium only plates.
Cells are assessed for proliferation 5 days later by measuring […] using CellTiterGlo (Promega).
After 5 days, for detection of ATP which is directly proportional to the number of cells present per well, the CellTiter-Glo® 2.0 Reagent is used. After visual control for toxicity or precipitations of the tested compounds, the plates are equilibrated to room temperature for 45 minutes. CellTiter-Glo® 2.0 Reagent is equilibrated to room temperature as well. After equilibration, an equal amount of CellTiter-Glo reagent is added to the cells (80 μl/well) with an electronic multichannel pipette. Plates are placed on a rocking platform for 15 minutes at room temperature. After incubation, the bottom of the plates is sealed with backing tape. Luminescence is measured with PHERAstar FSX (interval time 0.5 sec, gain 3000, focal height 15 mm) and exported as CSV file for analysis in Genedata screener.
Compounds which activate unstimulated cells (see IL2 measurements) or compounds which negatively affected viability were flagged.

primary human T-cells [2] = test system: primary human T-cells
Experimental: As readouts for T-cell activation, IL2 secretion after 24 hours and proliferation after 5 days was measured. Increases in IL2 secretion and proliferation upon compound treatment were assessed as the % of the maximum of reference compound A1. […] As a counter screen and to make sure that no unwanted TCR-independent activation was triggered, PBS conditions were run for all compounds.
For coating of plates, PBS++ with PBS−− or PBS++ with CD3 antibody (concentration depending on donor and determined by CD3 titrations) was added 100 μl/well to Poly-D Lysine coated 96-well plates. Plates were sealed and incubated at room temperature for 3 hours on a table-top rocking platform. After incubation, plates were washed once with PBS−− and filled with 40 μl/well culture medium only. Compounds were then added (see next section) to medium only plates. After 3 hours of culturing the T-cells, cells were filtered through a cell strainer (Miltenyi Biotech, #130-041-407), counted again and concentration was adjusted to 1.25 Mio/ml.
Cells were then seeded 80 μl/well to the 40 μl/well including dispensed compounds according to plate layout. By adding cells, compounds were further diluted 1:3, and resulting in 100 k cells/120 μl/well. After 24 hours 40 μl of supernatant was collected carefully from the top while not disturbing the cells and transferred into a round bottom 96 well plate. Collected and frozen supernatant was used for detection of IL2 using the IL-2 Human ProQuantum Immunoassay Kit (Invitrogen) or using the Human IL-2 ELISA Kit (Thermo Fisher).
Compounds were added in a 5 or 6pt dose response with the Tecan D300e Digital Dispenser, all conditions 3 times more concentrated than the end-concentration, since cells are added afterwards (80 μl cells to 40 μl prepared medium with treatment). The DR was starting at 20 μM or 10 μM final top concentration and a dilution factor of 3.333. The positive control was the reference compound A1 that was added in a dose response as well, additionally to 3 wells of only 20 μM representing the positive stimulator control. All wells were normalized with DMSO to a final concentration of 0.6% (0.2% end-concentration).
The immunoassay is done following the manufacturer's manual (Invitrogen, #A35603). Additional information: For the immunoassay, MicroAmp™ EnduraPlate™ Optical 384-Well plates are used. Frozen supernatant is thawed and centrifuged for 5 minutes at 1000×g, both steps at 4° C. After centrifugation, required sample amount is taken from the top, and in a separate LightCycler V-bottom plate (working plate) diluted with assay dilution buffer, dilution factor depending on the PBS or CD3 condition but at least 1:3. IL-2 standard and blanks are prepared in the same V-bottom plate, standard with a range of 0.0128-5000 pg/ml (extended version). After preparation, 5 μl of sample dilutions or standard/blanks are transferred to the optical 384-well plate (assay plate) and the 10 μl reaction protocol is being followed. For measurement, the QuantStudio 12K Flex system is used.
ELISA is done following the manufacturer's manual (Thermo Fisher Scientific, #88-7025-88). Additional information: For the ELISA Nunc MaxiSorp 96 well plates are used. Frozen supernatant is thawed and centrifuged for 5 minutes at 1000×g, both steps at 4° C. After that, required sample amount is taken from the top, and in a separate V-bottom plate diluted with ELISA diluent, dilution factor depending on the PBS or CD3 condition. IL-2 standard and blanks are prepared in the same V-bottom plate. After preparation, 50 μl of sample dilutions and 100 μl of standard or blanks are transferred to the Nunc plates.
CD3 and PBS plates were analysed separately in Genedata Screener using Roche Normalization PCT_POS_CTRL with DMSO set as Neutral Control and 20 μM of the reference compound A1 set as Stimulator Control/100%.
For CD3 conditions EC50 and Emax of the fitted sigmoidal curve were reported.

| Structure (SMILES) | Emax (primary human T-cells [1]) | EC50 (primary human T-cells [1]) | EC50 (primary human T-cells [2]) |
| --- | --- | --- | --- |
| Cc1nnc(-c2nnc(-c3cc4c(cc3F)S(=O)(=O)C[C@H](N)C(=O)N4Cc3ccc(OC(F)(F)F)cc3)o2)o1 [Example 60, (3R)-3-amino-8-fluoro-7-[5-(5-methyl-1,3,4-oxadiazol-2-yl)-1,3,4-oxadiazol-2-yl]-1,1-dioxo-5-[[4-(trifluoromethoxy)phenyl]methyl]-2,3-dihydro-1λ^6,5-benzothiazepin-4-one] | 110% | 320 nM | 535 nM |
| CC(C)(CN1CCCC1=O)c1nnc(-c2cc3c(cc2F)S(=O)(=O)C[C@H](N)C(=O)N3Cc2ccc(Cl)cc2)o1 [Example 64, (3R)-3-amino-5-[(4-chlorophenyl)methyl]-7-[5-[1,1-dimethyl-2-(2-oxopyrrolidin-1-yl)ethyl]-1,3,4-oxadiazol-2-yl]-8-fluoro-1,1-dioxo-2,3-dihydro-1λ^6,5-benzothiazepin-4-one] | 36% | > 10000 nM | 4350 nM |
| CC(O)(CNc1nnc(-c2cc3c(cc2F)S(=O)(=O)C[C@H](N)C(=O)N3Cc2ccc(Cl)cc2)o1)C(F)(F)F (stereo partly drawn) [Example 484] | 51% | 1060 nM | 1890 nM |
| CC(C)c1nnc(-c2cc3c(cc2F)S(=O)(=O)C[C@H](N)C(=O)N3Cc2ccc(Cl)cc2)o1 [Example 84, (3R)-3-Amino-5-[(4-chlorophenyl)methyl]-8-fluoro-7-(5-isopropyl-1,3,4-oxadiazol-2-yl)-1,1-dioxo-2,3-dihydro-1λ^6,5-benzothiazepin-4-one] | 191% | 226 nM | 450 nM |
| CS(=O)(=O)CCc1nnc(-c2cc3c(cc2F)S(=O)(=O)C[C@H](N)C(=O)N3Cc2ccc(Cl)cc2)o1 [Example 95, (3R)-3-amino-5-[(4-chlorophenyl)methyl]-8-fluoro-7-[5-(2-methylsulfonylethyl)-1,3,4-oxadiazol-2-yl]-1,1-dioxo-2,3-dihydro-1λ^6,5-benzothiazepin-4-one] | 67% | 6160 nM | 5360 nM |
| CC(C)(C)c1nnc(-c2ccc3c(c2)N(Cc2ccc(N4CCCC4)cc2)C(=O)[C@@H](N)CS3(=O)=O)o1 [Example 448, (3R)-3-amino-7-(5-tert-butyl-1,3,4-oxadiazol-2-yl)-1,1-dioxo-5-[(4-pyrrolidin-1-ylphenyl)methyl]-2,3-dihydro-1λ^6.5-benzothiazepin-4-one] | 94% | 1960 nM | 4620 nM |
| N[C@H]1CS(=O)(=O)c2cc(F)c(-c3nnc(NC4CCCN(CC(F)(F)F)C4)o3)cc2N(Cc2ccc(Cl)cc2)C1=O (stereo partly drawn) [Example 492, (3R)-3-amino-5-[(4-chlorophenyl)methyl]-8-fluoro-1,1-dioxo-7-[5-[[1-(2,2,2-trifluoroethyl)-3-piperidyl]amino]-1,3,4-oxadiazol-2-yl]-2,3-dihydro-1λ^6,5-benzothiazepin-4-one] | 88% | 671 nM | 638 nM |
| CN1CC[C@H](n2nnc(-c3cc4c(cc3F)S(=O)(=O)C[C@H](N)C(=O)N4Cc3ccc(Cl)cc3)n2)C1 [Example 9, (3R)-3-amino-5-[(4-chlorophenyl)methyl]-8-fluoro-1,1-dioxo-7-[2-[(3S)-1-methylpyrrolidin-3-yl]tetrazol-5-yl]-2,3-dihydro-1λ^6,5-benzothiazepin-4-one] | 63% | 4660 nM | 1320 nM |
| CC(C)(CN1CCOCC1)c1nnc(-c2cc3c(cc2F)S(=O)(=O)C[C@H](N)C(=O)N3Cc2ccc(Cl)cc2)o1 [Example 147, (3R)-3-amino-5-[(4-chlorophenyl)methyl]-7-[5-(1,1-dimethyl-2-morpholino-ethyl)-1,3,4-oxadiazol-2-yl]-8-fluoro-1,1-dioxo-2,3-dihydro-1λ^6,5-benzothiazepin-4-one] | 117% | 343 nM | 348 nM |
| CC(F)(F)CNc1nnc(-c2cc3c(cc2F)S(=O)(=O)C[C@H](N)C(=O)N3Cc2ccc(Cl)cc2)o1 [Example 502, (3R)-3-amino-5-[(4-chlorophenyl)methyl]-7-[5-(2,2-difluoropropylamino)-1,3,4-oxadiazol-2-yl]-8-fluoro-1,1-dioxo-2,3-dihydro-1λ^6,5-benzothiazepin-4-one] | 72% | 4460 nM | > 10000 nM |
| COc1ccc(CN2C(=O)[C@@H](N)CS(=O)(=O)c3cc(F)c(-c4nnc(C(C)(C)C)o4)cc32)cn1 [Example 225, (3R)-3-amino-7-(5-tert-butyl-1,3,4-oxadiazol-2-yl)-8-fluoro-5-[(6-methoxy-3-pyridyl)methyl]-1,1-dioxo-2,3-dihydro-1λ^6,5-benzothiazepin-4-one] | 109% | 1890 nM | 4370 nM |
| CC1(c2nc(-c3cc4c(cc3F)S(=O)(=O)C[C@H](N)C(=O)N4Cc3ccc(Cl)cc3)no2)CCN(C(=O)N2CCCC2)CC1 [Example 305, (3R)-3-amino-5-[(4-chlorophenyl)methyl]-8-fluoro-7-[5-[4-methyl-1-(pyrrolidine-1-carbonyl)-4-piperidyl]-1,2,4-oxadiazol-3-yl]-1,1-dioxo-2,3-dihydro-1λ^6,5-benzothiazepin-4-one] | 84% | 720 nM | 1810 nM |
| CS(=O)(=O)N1CCCC(n2nnc(-c3cc4c(cc3F)S(=O)(=O)C[C@H](N)C(=O)N4Cc3ccc(Cl)cc3)n2)C1 (stereo partly drawn) [Example 18, (3R)-3-amino-5-[(4-chlorophenyl)methyl]-8-fluoro-7-[2-(1-methylsulfonyl-3-piperidyl)tetrazol-5-yl]-1,1-dioxo-2,3-dihydro-1λ^6,5-benzothiazepin-4-one] | 136% | 296 nM | 910 nM |
| CC(C)(C)c1nnc(-c2ccc3c(c2)N(Cc2ccc(OC(F)(F)F)cc2)C(=O)[C@@H](N)CS3(=O)=O)o1 [Example 360, (3R)-3-amino-7-(5-tert-butyl-1,3,4-oxadiazol-2-yl)-1,1-dioxo-5-[[4-(trifluoromethoxy)phenyl]methyl]-2,3-dihydro-1λ^6,5-benzothiazepin-4-one] | 103% | 384 nM | 922 nM |
| C[C@@H](COC(F)(F)F)Nc1nnc(-c2cc3c(cc2F)S(=O)(=O)C[C@H](N)C(=O)N3Cc2ccc(Cl)cc2)o1 [Example 503, (3R)-3-amino-5-[(4-chlorophenyl)methyl]-8-fluoro-1,1-dioxo-7-[5-[[(1S)-1-methyl-2-(trifluoromethoxy)ethyl]amino]-1,3,4-oxadiazol-2-yl]-2,3-dihydro-1λ^6,5-benzothiazepin-4-one] | 135% | 371 nM | 3090 nM |
| CC(C)(C)c1nnc(-c2cc3c(cc2F)S(=O)(=O)C[C@H](N)C(=O)N3Cc2ccc(OCC(F)(F)F)cc2)o1 [Example 243, (3R)-3-amino-7-(5-tert-butyl-1,3,4-oxadiazol-2-yl)-8-fluoro-1,1-dioxo-5-[[4-(2,2,2-trifluoroethoxy)phenyl]methyl]-2,3-dihydro-1λ^6,5-benzothiazepin-4-one] | 129% | 246 nM | 918 nM |
| CC(C)(C)c1nnc(-c2ccc3c(c2)N(Cc2ccc(Oc4ccc(C(F)(F)F)cn4)cc2)C(=O)[C@@H](N)CS3(=O)=O)o1 [Example 440, (3R)-3-amino-7-(5-tert-butyl-1,3,4-oxadiazol-2-yl)-1,1-dioxo-5-[[4-[[5-(trifluoromethyl)-2-pyridyl]oxy]phenyl]methyl]-2,3-dihydro-1λ^6,5-benzothiazepin-4-one] | 110% | 2520 nM | 2510 nM |
| CC(C)(C)c1nnc(-c2ccc3c(c2)N(Cc2ccc(Oc4ccc(F)cc4)cc2)C(=O)[C@@H](N)CS3(=O)=O)o1 [Example 439, (3R)-3-amino-7-(5-tert-butyl-1,3,4-oxadiazol-2-yl)-5-[[4-(4-fluorophenoxy)phenyl]methyl]-1,1-dioxo-2,3-dihydro-1λ^6,5-benzothiazepin-4-one] | 138% | 299 nM | 2100 nM |
| N[C@H]1CS(=O)(=O)c2cc(F)c(-c3noc(NC4CC(F)(F)C4)n3)cc2N(Cc2ccc(Cl)cc2)C1=O [Example 206] | 168% | 157 nM | 542 nM |
| N[C@H]1CS(=O)(=O)c2cc(F)c(-c3nnc(NC4CCN(C5CC5)CC4)o3)cc2N(Cc2ccc(Cl)cc2)C1=O [Example 460, (3R)-3-amino-5-[(4-chlorophenyl)methyl]-7-[5-[(1-cyclopropyl-4-piperidyl)amino]-1,3,4-oxadiazol-2-yl]-8-fluoro-1,1-dioxo-2,3-dihydro-1λ^6,5-benzothiazepin-4-one] | 55% | 5700 nM | 509 nM |
| N[C@H]1CS(=O)(=O)c2ccc(-c3nnc(N4CC(CO)(CCl)C4)o3)cc2N(Cc2ccc(Cl)cc2)C1=O [Example 400, (3R)-3-amino-7-[5-[3-(chloromethyl)-3-(hydroxymethyl)azetidin-1-yl]-1,3,4-oxadiazol-2-yl]-5-[(4-chlorophenyl)methyl]-1,1-dioxo-2,3-dihydro-1λ^6,5-benzothiazepin-4-one] | 72% | 5220 nM | 4050 nM |
| CC(C)(CNC1COC1)c1nnc(-c2cc3c(cc2F)S(=O)(=O)C[C@H](N)C(=O)N3Cc2ccc(Cl)cc2)o1 [Example 156, (3R)-3-amino-5-[(4-chlorophenyl)methyl]-7-[5-[1,1-dimethyl-2-(oxetan-3-ylamino)ethyl]-1,3,4-oxadiazol-2-yl]-8-fluoro-1,1-dioxo-2,3-dihydro-1lambda6,5-benzothiazepin-4-one] | 135% | 8130 nM | 3340 nM |
